# Laboratory results: patent US20240197871A1, “COMBINATION OF A CAR T CELL THERAPY AND AN IMMUNOMODULATORY COMPOUND FOR TREATMENT OF LYMPHOMA” (Juno Therapeutics, Inc., priority 2021, published 2024)
# How the values were obtained:
# Aiolos = biological target: T1, Aiolos (Homo sapiens, UniProt Q96SW2+Q9UKT9); experiment: Aiolos degradation in stimulated anti-CD19 CAR T cells (flow cytometry MFI); type: cell-based
# T1 construct: analyzed by flow cytometry to assess intracellular levels of Ikaros and Aiolos in CAR+ T cells; endogenous in cells; host or cells: primary human CD4+ and CD8+ T cells from healthy donors, lentivirally transduced with an anti-CD19 CAR
# T1 sequence (Q9UKT9 whole entry): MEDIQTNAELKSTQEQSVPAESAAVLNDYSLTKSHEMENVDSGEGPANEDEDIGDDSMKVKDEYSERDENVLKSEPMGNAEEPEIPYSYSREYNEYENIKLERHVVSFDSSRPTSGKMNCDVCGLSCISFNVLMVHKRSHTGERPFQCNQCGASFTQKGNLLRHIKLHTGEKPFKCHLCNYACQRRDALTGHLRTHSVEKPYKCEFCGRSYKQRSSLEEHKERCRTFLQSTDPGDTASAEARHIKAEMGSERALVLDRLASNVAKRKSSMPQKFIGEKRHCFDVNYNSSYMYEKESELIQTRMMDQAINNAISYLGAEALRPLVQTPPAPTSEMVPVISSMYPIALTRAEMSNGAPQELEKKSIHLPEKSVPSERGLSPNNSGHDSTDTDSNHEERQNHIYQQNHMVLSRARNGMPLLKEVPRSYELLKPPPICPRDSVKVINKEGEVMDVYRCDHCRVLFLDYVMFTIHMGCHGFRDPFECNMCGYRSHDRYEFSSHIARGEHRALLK
# T1 sequence (Q96SW2 whole entry): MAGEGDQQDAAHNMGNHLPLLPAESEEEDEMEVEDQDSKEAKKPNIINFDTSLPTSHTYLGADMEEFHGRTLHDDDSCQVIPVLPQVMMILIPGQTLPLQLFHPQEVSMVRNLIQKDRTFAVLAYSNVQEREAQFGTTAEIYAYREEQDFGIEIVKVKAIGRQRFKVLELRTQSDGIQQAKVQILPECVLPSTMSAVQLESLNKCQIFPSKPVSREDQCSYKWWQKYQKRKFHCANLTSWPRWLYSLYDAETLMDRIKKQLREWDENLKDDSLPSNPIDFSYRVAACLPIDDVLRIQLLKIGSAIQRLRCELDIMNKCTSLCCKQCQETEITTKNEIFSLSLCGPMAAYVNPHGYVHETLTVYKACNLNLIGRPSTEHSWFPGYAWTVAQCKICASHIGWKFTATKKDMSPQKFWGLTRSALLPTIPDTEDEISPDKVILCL
# T1 sequence (Q16531 whole entry partner): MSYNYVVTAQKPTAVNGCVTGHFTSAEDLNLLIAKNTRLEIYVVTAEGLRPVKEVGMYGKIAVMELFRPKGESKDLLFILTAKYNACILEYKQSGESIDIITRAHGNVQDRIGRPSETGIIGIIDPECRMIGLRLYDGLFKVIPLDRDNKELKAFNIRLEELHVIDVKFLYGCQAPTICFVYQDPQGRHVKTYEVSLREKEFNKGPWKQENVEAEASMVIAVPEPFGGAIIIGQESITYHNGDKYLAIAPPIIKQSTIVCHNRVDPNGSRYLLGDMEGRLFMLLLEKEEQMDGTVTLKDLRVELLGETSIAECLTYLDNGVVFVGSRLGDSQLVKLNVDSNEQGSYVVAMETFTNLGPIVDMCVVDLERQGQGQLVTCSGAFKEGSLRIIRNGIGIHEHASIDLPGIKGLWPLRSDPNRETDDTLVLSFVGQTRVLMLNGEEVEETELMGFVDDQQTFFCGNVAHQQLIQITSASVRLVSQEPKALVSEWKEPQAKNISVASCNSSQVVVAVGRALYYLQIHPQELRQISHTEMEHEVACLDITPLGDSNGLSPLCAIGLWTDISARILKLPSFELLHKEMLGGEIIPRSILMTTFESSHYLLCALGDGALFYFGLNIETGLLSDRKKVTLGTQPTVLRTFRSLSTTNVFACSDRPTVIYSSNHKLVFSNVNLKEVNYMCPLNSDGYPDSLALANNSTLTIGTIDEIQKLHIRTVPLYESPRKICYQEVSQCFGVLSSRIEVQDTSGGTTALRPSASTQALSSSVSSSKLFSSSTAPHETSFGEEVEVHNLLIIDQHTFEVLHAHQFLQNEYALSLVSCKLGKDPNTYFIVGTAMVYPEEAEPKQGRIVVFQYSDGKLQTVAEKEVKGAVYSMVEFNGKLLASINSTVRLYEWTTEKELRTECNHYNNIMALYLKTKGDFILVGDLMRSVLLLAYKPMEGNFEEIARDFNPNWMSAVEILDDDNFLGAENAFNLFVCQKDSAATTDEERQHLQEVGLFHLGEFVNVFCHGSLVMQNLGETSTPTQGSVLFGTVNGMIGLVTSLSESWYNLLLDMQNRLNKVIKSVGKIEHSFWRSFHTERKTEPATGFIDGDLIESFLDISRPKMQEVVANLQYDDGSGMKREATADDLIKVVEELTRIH
# Description: T cell compositions containing anti-CD19 CAR-expressing T cells were generated from leukapheresis samples from five healthy human adult donors by a process that included immunoaffinity-based selection of T cells by separately selecting CD4+ and CD8+ cells from the samples, resulting in two compositions enriched for CD4+ and CD8+ cells, respectively, per donor. Cells of the enriched CD4+ and CD8+ compositions were separately activated with anti-CD3/anti-CD28 beads and subjected to lentiviral transduction with a vector encoding an anti-CD19 CAR. The anti-CD19 CAR contained an anti-CD19 single-chain variable fragment (scFv) derived from a murine antibody (variable region derived from FMC63), an immunoglobulin-derived spacer, a transmembrane domain derived from CD28, a costimulatory region derived from 4-1BB, and a CD3-zeta intracellular signaling domain. The expression construct in the viral vector further contained sequences encoding a surrogate surface marker for CAR expression, which was separated from the CAR-encoding sequence by a T2A ribosome skip sequence. Transduced populations then were separately incubated in the presence of stimulating reagents for cell expansion. Expanded CD4+ and CD8+ cells were formulated and cryopreserved separately and stored.
# Prior to use, the cryopreserved CD4+ and CD8+ engineered cell compositions were thawed and combined at approximately a 1:1 CD4:CD8 ratio for each donor. Cells of the combined composition were then stimulated at 37° C. with 5% CO2 for 24 hours with 30 µg/mL of a CAR-specific anti-idiotypic antibody (see, e.g., WO2018/023100).
# Following incubation, the stimulated cells were stained with antibodies and analyzed by flow cytometry to assess intracellular levels of Ikaros and Aiolos in CAR+ T cells, as measured by median fluorescence intensity (MFI). MFI values for Ikaros and Aiolos were normalized and calculated as a percentage relative to vehicle control.
# Ikaros = biological target: T2, Ikaros (Homo sapiens, UniProt Q13422+Q96SW2); experiment: Ikaros expression in CAR T cells after six days of chronic stimulation (MFI); type: cell-based; settings: higher concentrations (e.g., 0.01 μM and 0.1 μM); compared with Compound 2
# T2 construct: analyzed by flow cytometry to assess intracellular levels of Ikaros and Aiolos in CAR+ T cells; endogenous in cells; host or cells: primary human CD4+ and CD8+ T cells from healthy donors, lentivirally transduced with an anti-CD19 CAR
# T2 sequence (Q13422 whole entry): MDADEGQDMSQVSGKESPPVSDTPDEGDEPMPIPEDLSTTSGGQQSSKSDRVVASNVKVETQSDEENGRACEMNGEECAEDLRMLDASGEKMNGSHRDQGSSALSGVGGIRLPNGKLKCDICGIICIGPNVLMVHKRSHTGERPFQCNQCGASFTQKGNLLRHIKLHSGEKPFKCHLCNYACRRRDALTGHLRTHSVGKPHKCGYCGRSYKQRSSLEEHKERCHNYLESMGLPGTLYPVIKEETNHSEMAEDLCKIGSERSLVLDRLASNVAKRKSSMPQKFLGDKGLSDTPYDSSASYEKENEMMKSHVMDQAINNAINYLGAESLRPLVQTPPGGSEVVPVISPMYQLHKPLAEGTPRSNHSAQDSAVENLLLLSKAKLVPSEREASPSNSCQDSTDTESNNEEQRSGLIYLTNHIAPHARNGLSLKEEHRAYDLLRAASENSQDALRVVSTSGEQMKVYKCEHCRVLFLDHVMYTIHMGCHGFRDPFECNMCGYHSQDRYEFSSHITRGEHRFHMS
# T2 sequence (Q96SW2 whole entry): as the sequence (Q96SW2 whole entry) above
# T2 sequence (Q16531 whole entry partner): as the sequence (Q16531 whole entry partner) above
# Procedure: (§1) To simulate conditions of chronic stimulation, anti-CD19 CAR-expressing T cells, produced as described in Example 1, were incubated with plate-bound CAR-specific anti-idiotypic antibody (see, e.g., WO2018/023100) and incubated at 37° C. for a period of six days. […] For instance, CAR T cells that were re-challenged with CD19+ tumor cells following the six-day stimulation had reduced IFNγ and IL-2 cytokine production (FIG. 3A) and reduced cytolytic function (FIG. 3B) compared to freshly thawed CAR T cells not subjected to the six-day stimulation.
# The ability of Compound C to block or reduce this CAR T cell hypofunctionality following chronic stimulation was assessed. To do so, engineered CAR T cells were concurrently treated with Compound C, Compound 2, or a vehicle control during the six-day stimulation. Stimulated CAR T cells were then harvested, washed twice in media, and re-challenged with Granta-519 lymphoma tumor spheroids (that had been transduced with IncuCyte NucLight Red) in the absence of Compound C, after which cytolytic activity was assessed by loss of red fluorescence over time and averaged measurement of tumor spheroid size at various times following co-culture with CAR-T cells. Cytokine production, Ikaros expression, and gene expression of the CAR T Cells also were assessed. […]
# anti-CD19 CAR T cells [1] = experiment: Viability of anti-CD19 CAR T cells stimulated with anti-idiotypic antibody (live/dead dye); type: cell-based, human; settings: Day 3 of culture; 3 or 30 μg/mL anti-idiotypic antibody; three donors
# Procedure: (§2) Anti-CD19 CAR-expressing T cell compositions were generated from three different healthy donors as described in Example 1. Prior to use, cryopreserved CD4+ and CD8+ engineered cell compositions were thawed and combined at approximately a 1:1 CD4:CD8 ratio.
# (§3) Following incubation, stimulated CAR T cells were harvested, washed twice in media, and assessed.
# Viability was assessed at Day 3 of culture by flow cytometry using a live/dead cell dye. As shown in FIG. 2A for the three donors (mean±SEM), the compounds had no effect on cell viability when stimulation was carried out either with 3 μg/mL of anti-idiotypic antibody (left panel) or with 30 μg/mL of anti-idiotypic antibody (right panel).
# anti-CD19 CAR T cells [2] = experiment: Proliferation (cell doublings) of stimulated anti-CD19 CAR T cells, IncuCyte; type: cell-based, human
# Procedure: as §2, §3
# Proliferation of T cells during culture with the plate-bound anti-idiotypic antibody was monitored for seven days using an IncuCyte® Live Cell Analysis System (Essen BioScience Inc.), and the number of cell doublings of cells stimulated with 30 μg/mL of anti-idiotypic antibody is shown in FIG. 2B and FIG. 2C for the three donors (mean±SEM).
# [3] = system: Granta-519 lymphoma tumor spheroids; experiment: Chronic stimulation with concurrent treatment, re-challenge with tumor spheroids; type: cell-based
# Procedure: as §1
# The ability of Compound C to block or reduce this CAR T cell hypofunctionality following chronic stimulation was assessed. To do so, engineered CAR T cells were concurrently treated with Compound C, Compound 2, or a vehicle control during the six-day stimulation. Stimulated CAR T cells were then harvested, washed twice in media, and re-challenged with Granta-519 lymphoma tumor spheroids (that had been transduced with IncuCyte NucLight Red) in the absence of Compound C, after which cytolytic activity was assessed by loss of red fluorescence over time and averaged measurement of tumor spheroid size at various times following co-culture with CAR-T cells. Cytokine production, Ikaros expression, and gene expression of the CAR T Cells also were assessed.
# FIGS. 3D and 3E show the volume of tumor spheroids co-cultured with CAR T cells that were stimulated in the presence of Compound C after chronic stimulation. As shown in FIG. 3D and FIG. 3E, cytolytic activity during re-challenge was improved by treatment with Compound C at a 1 nM concentration during stimulation (**** P<0.0001).
smiles,measurement,setting,value
"O=C1CC[C@H](N2C(=O)c3cccc(NCc4ccc(CN5CC(N6CCOCC6)C5)cc4F)c3C2=O)C(=O)N1 [Compound C, (S)-2-(2,6-dioxopiperidin-3-yl)-4-((2-fluoro-4-((3-morpholinoazetidin-1-yl)methyl)benzyl)amino)isoindoline-1,3-dione]",DC50,"Aiolos; anti-CD19 CAR T cells, 24 hours stimulation with anti-idiotypic antibody, concentration reducing MFI to 50%, average of five donors, read-out: Average EC50 Values (95% Confidence Interval), Aiolos",0.25 nM
same,intracellular Aiolos expression (MFI relative to vehicle control),"Aiolos; approximately 10^-1 to 10^4 nM, 24 hours",Concentration-dependent decreases
same,Aiolos expression compared with Compound 2 or Compound 1,Aiolos; at all compound concentration levels tested,lower
same,Ikaros expression (MFI) after six days of chronic stimulation,Ikaros,lowest
same,cell viability (percentage of live CAR T cells),anti-CD19 CAR T cells [1],without affecting CAR T cell viability
same,CAR T cell proliferation,"anti-CD19 CAR T cells [2]; 1 nM, P<0.001",decreased
same,CAR T cell proliferation,"anti-CD19 CAR T cells [2]; 10 nM, P<0.0001",further decreased
same,decrease of cell doublings compared with the other compounds,anti-CD19 CAR T cells [2]; at all doses tested,greatest decrease of doublings
same,IFNγ production in supernatant five days after re-challenge,"[3]; 1 nM concurrently during chronic stimulation, P<0.0001",improved IFNγ production
same,cytolytic activity during re-challenge (tumor spheroid volume),"[3]; 1 nM during six-day chronic stimulation (concurrent), P<0.0001",improved
same,IFNγ production in supernatant five days after re-challenge,"[3]; 10 nM during chronic stimulation, P<0.001, lesser extent than 1 nM",increased IFNγ production
same,tumor size at day 9 of co-culture,"[3]; 10 nM during six-day chronic stimulation (concurrent), P<0.05, lesser extent than 1 nM",reduced tumor size
